From ChEMBL document CHEMBL1201862, “PubChem BioAssay data set” (2004)
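A five-concentration, 48-hour dose response in 96-well plates underlies each endpoint, interpolated linearly between surrounding concentrations. At the GI50, growth is halved.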 Activity calls are given as the source filed them. Rule as the data show it: active = GI50 up to about 1.1 µM and inactive = higher.

Experiments:
Test in all cases: growth of human tumour cells (NCI), 48 h
[1] = tested on: ACHN
[2] = tested on: COLO 205
[3] = tested on: HCT-15
[4] = tested on: HOP-62
[5] = tested on: HOP-92
[6] = tested on: KM12
[7] = tested on: LXFL 529
[8] = tested on: M14
[9] = tested on: NCI-H460
[10] = tested on: NCI-H522
[11] = tested on: OVCAR-8
[12] = tested on: SK-MEL-28
[13] = tested on: SK-OV-3
[14] = tested on: U-251
[15] = tested on: LOX IMVI
[16] = tested on: SK-MEL-2
[17] = tested on: BT-549
[18] = tested on: MDA-MB-435
[19] = tested on: PC-3
[20] = tested on: T47D

Compound	GI50 [1]	GI50 [2]	GI50 [3] [µM]	GI50 [4]	GI50 [5]	GI50 [6]	GI50 [7]	GI50 [8]	GI50 [9]	GI50 [10]	GI50 [11]	GI50 [12]	GI50 [13]	GI50 [14]	GI50 [15]	GI50 [16]	GI50 [17]	GI50 [18]	GI50 [19]	GI50 [20]
COC(=O)C(C)Oc1ccc(O)cc1 (centres undefined)	> 100 µM (inactive)	> 100 µM (inactive)	> 100	> 100 µM (inactive)	> 100 µM (inactive)	> 100 µM (inactive)	> 100 µM (inactive)	> 100 µM (inactive)	> 100 µM (inactive)	> 100 µM (inactive)	> 100 µM (inactive)	29.2 µM (inactive)	> 100 µM (inactive)	> 100 µM (inactive)						
CC(C)=Cc1cc(C(=O)Nc2ccc(Cl)c(Cl)c2)nc(N)n1	> 100 µM (inactive)		> 100	> 100 µM (inactive)	> 100 µM (inactive)	> 100 µM (inactive)	> 100 µM (inactive)	> 100 µM (inactive)	> 100 µM (inactive)		> 100 µM (inactive)	> 100 µM (inactive)		> 100 µM (inactive)	> 100 µM (inactive)	> 100 µM (inactive)				
O=C(OCc1ccccc1)N1N=NC2C3CC(OCc4ccccc4)(OCc4ccccc4)C(O3)C21 (centres undefined)	29.6 µM (inactive)	23.1 µM (inactive)	34	24.7 µM (inactive)	12.6 µM (inactive)	36.3 µM (inactive)	18.8 µM (inactive)	23.6 µM (inactive)	39.9 µM (inactive)			21.3 µM (inactive)	99.3 µM (inactive)	40.6 µM (inactive)	15.1 µM (inactive)	16.3 µM (inactive)				
O=C1c2ccccc2C(=O)c2c1ccc(O)c2O [ATHRAQUINONES A]	34.8 µM (inactive)	34.5 µM (inactive)	37.1	> 100 µM (inactive)	38.6 µM (inactive)	57.8 µM (inactive)	43.2 µM (inactive)	77.6 µM (inactive)	38.9 µM (inactive)	39.4 µM (inactive)	31.3 µM (inactive)	> 100 µM (inactive)		38.6 µM (inactive)	37.8 µM (inactive)	43 µM (inactive)				
COC[n+]1cc2cc(OC)c(OC)cc2c2ccc3cc(OC)c(OC)cc3c21	> 100 µM (inactive)	> 100 µM (inactive)	> 100	> 100 µM (inactive)	> 100 µM (inactive)	> 100 µM (inactive)	> 100 µM (inactive)	> 100 µM (inactive)	> 100 µM (inactive)	> 100 µM (inactive)	> 100 µM (inactive)	> 100 µM (inactive)		> 100 µM (inactive)	> 100 µM (inactive)	> 100 µM (inactive)				
O=[PH](O)c1ccccn1	> 100 µM (inactive)	> 100 µM (inactive)	> 100	> 100 µM (inactive)	> 100 µM (inactive)	> 100 µM (inactive)	> 100 µM (inactive)	> 100 µM (inactive)	> 100 µM (inactive)	> 100 µM (inactive)	> 100 µM (inactive)	> 100 µM (inactive)	> 100 µM (inactive)	> 100 µM (inactive)	> 100 µM (inactive)					
O=C1C2c3[nH]c4ccccc4c3C3CCCC3C2C(=O)N1c1ccccc1 (centres undefined)	> 100 µM (inactive)	> 100 µM (inactive)	78			> 100 µM (inactive)	> 100 µM (inactive)	> 100 µM (inactive)	91.8 µM (inactive)		61.8 µM (inactive)	> 100 µM (inactive)	> 100 µM (inactive)	> 100 µM (inactive)	> 100 µM (inactive)					
CNc1nc(N)cc(O)n1	> 100 µM (inactive)	> 100 µM (inactive)	> 100	> 100 µM (inactive)		> 100 µM (inactive)	> 100 µM (inactive)	> 100 µM (inactive)	> 100 µM (inactive)	> 100 µM (inactive)	> 100 µM (inactive)	> 100 µM (inactive)	> 100 µM (inactive)	> 100 µM (inactive)	> 100 µM (inactive)	> 100 µM (inactive)				
O=C(O)CC(Cc1ccccc1Cl)C(=O)O (centres undefined)	> 100 µM (inactive)	> 100 µM (inactive)	> 100	> 100 µM (inactive)	> 100 µM (inactive)	> 100 µM (inactive)		> 100 µM (inactive)	> 100 µM (inactive)	> 100 µM (inactive)	> 100 µM (inactive)	> 100 µM (inactive)	> 100 µM (inactive)	> 100 µM (inactive)	> 100 µM (inactive)	> 100 µM (inactive)	> 100 µM (inactive)	> 100 µM (inactive)	> 100 µM (inactive)	> 100 µM (inactive)
Nc1c([N+](=O)[O-])cc2c3c(cccc13)CC2	> 100 µM (inactive)	64.1 µM (inactive)	65.9	74.6 µM (inactive)	> 100 µM (inactive)	> 100 µM (inactive)		> 100 µM (inactive)	54.1 µM (inactive)	93.8 µM (inactive)	71.3 µM (inactive)	> 100 µM (inactive)	51.2 µM (inactive)	91 µM (inactive)	65.2 µM (inactive)	51.3 µM (inactive)	74.6 µM (inactive)	62.5 µM (inactive)	> 100 µM (inactive)	30.1 µM (inactive)
NC(Cc1ccnnc1)C(=O)O (centres undefined)	> 100 µM (inactive)	> 100 µM (inactive)	> 100	> 100 µM (inactive)	> 100 µM (inactive)	> 100 µM (inactive)		> 100 µM (inactive)	> 100 µM (inactive)	> 100 µM (inactive)	> 100 µM (inactive)	> 100 µM (inactive)	> 100 µM (inactive)	> 100 µM (inactive)	> 100 µM (inactive)	> 100 µM (inactive)	> 100 µM (inactive)	> 100 µM (inactive)	> 100 µM (inactive)	> 100 µM (inactive)
CC(C)OP(=O)(CN(C)/C(F)=N\C(F)(F)F)OC(C)C	> 100 µM (inactive)	> 100 µM (inactive)	> 100	> 100 µM (inactive)	> 100 µM (inactive)	> 100 µM (inactive)		> 100 µM (inactive)	> 100 µM (inactive)	8.2 µM (inactive)	> 100 µM (inactive)	> 100 µM (inactive)	> 100 µM (inactive)	> 100 µM (inactive)	> 100 µM (inactive)	> 100 µM (inactive)	> 100 µM (inactive)	> 100 µM (inactive)	> 100 µM (inactive)	> 100 µM (inactive)
Nc1nc(Cl)c(C=O)c(NCC2(CO)CC(CCc3ccccc3)C2)n1 (centres undefined)	12.7 µM (inactive)	11.6 µM (inactive)	4.18	14.5 µM (inactive)	1.77 µM (inactive)	13.7 µM (inactive)		2.54 µM (inactive)	16.7 µM (inactive)	1.71 µM (inactive)	2.07 µM (inactive)	4 µM (inactive)	11.3 µM (inactive)	13.6 µM (inactive)	2.95 µM (inactive)	3.57 µM (inactive)	12.1 µM (inactive)	5.73 µM (inactive)	6.43 µM (inactive)	1.34 µM (inactive)
C1CN2N3CCCC23C1 (centres undefined)	> 100 µM (inactive)	> 100 µM (inactive)	> 100	> 100 µM (inactive)		> 100 µM (inactive)	> 100 µM (inactive)	> 100 µM (inactive)	> 100 µM (inactive)	> 100 µM (inactive)	> 100 µM (inactive)	> 100 µM (inactive)	> 100 µM (inactive)	> 100 µM (inactive)	> 100 µM (inactive)	> 100 µM (inactive)				
Cc1ccc2nc(NC(=O)C(=O)C(C#N)c3ccc(Cl)cc3)sc2c1 (centres undefined)	> 50 µM (inactive)	> 50 µM (inactive)	> 50	> 50 µM (inactive)	> 50 µM (inactive)	> 50 µM (inactive)	> 50 µM (inactive)	> 50 µM (inactive)	> 50 µM (inactive)		> 50 µM (inactive)	> 50 µM (inactive)	> 50 µM (inactive)	> 50 µM (inactive)	> 50 µM (inactive)	> 50 µM (inactive)				
COC(=O)[C@]12CC[C@H]3CC[C@H]([C@H]31)[C@H](c1ccccc1)N2	17.6 µM (inactive)	16.5 µM (inactive)	18.2	17.4 µM (inactive)	15.8 µM (inactive)	18.5 µM (inactive)		17.9 µM (inactive)	15.9 µM (inactive)	20.5 µM (inactive)	17.4 µM (inactive)	21.9 µM (inactive)	25.4 µM (inactive)	17 µM (inactive)	17.3 µM (inactive)	15.2 µM (inactive)	18.4 µM (inactive)	18.3 µM (inactive)	16.3 µM (inactive)	16.4 µM (inactive)
COc1cc(/C=C(\NC(=O)c2ccccc2)c2nc3cncnc3[nH]2)cc(OC)c1OC	> 100 µM (inactive)	> 100 µM (inactive)	> 100		88.1 µM (inactive)	> 100 µM (inactive)	> 100 µM (inactive)	> 100 µM (inactive)		> 100 µM (inactive)	> 100 µM (inactive)	> 100 µM (inactive)	> 100 µM (inactive)	> 100 µM (inactive)		> 100 µM (inactive)				
COc1cc(C)cc(C(=O)/C=C/c2ccccc2)c1O	18.3 µM (inactive)	20 µM (inactive)	18.1	16.7 µM (inactive)	14.9 µM (inactive)	18.5 µM (inactive)		16.6 µM (inactive)	20.2 µM (inactive)	17.9 µM (inactive)	19.2 µM (inactive)	19.4 µM (inactive)	29.2 µM (inactive)	17.2 µM (inactive)	17.4 µM (inactive)	18.5 µM (inactive)	17.4 µM (inactive)	26.9 µM (inactive)	19.3 µM (inactive)	11.1 µM (inactive)
